1 compound from BindingDB's records for doi:10.1021/jm010853h (Sapienza University of Rome, 2001) can be followed below.

The target of the assay is T1, Gag-Pol polyprotein [588-1027]/[588-1147] (Human immunodeficiency virus 1, UniProt P04585).
T1 construct: 588-1027; 588-1147
Nature of the assay: HIV-1 RT Assay. Particulars: pH 7.8; 37 °C.

The term IC50 denotes the concentration at which inhibition is half-maximal. Low values mean higher potency, high ones lower potency. Consider `CCC(c1ccccc1)c1cc(=O)[nH]c(SC2CCCC2)n1` (stereo unspecified) [2-(cyclopentylsulfanyl)-6-(1-phenylpropyl)-3,4-dihydropyrimidin-4-one], for which the IC50 is above 10 µM.
